Measurements from patent publication EP1981504B1, “THIADIAZOLE DERIVATIVES FOR THE TREATMENT OF NEURO DEGENERATIVE DISEASES” (NV reMYND, priority 2006, dated 2007).
In brackets after ≈: the same amount, converted by molar mass.

Tested on: M17-SYNwt cells
Assay: α-synuclein cytotoxicity assay (LDH leakage from paraquat-treated α-synuclein over-expressing neuroblastoma cells)
Assay type: cell-based, human
Settings: paraquat 32 mM, 40 hours, LDH release; for EC50: Homo sapiens, Neuroblastoma cell, 10 point curves in duplicate; for %I: percent inhibition of synuclein cytotoxicity at most effective concentration of test compound, relative to untreated paraquat cells
Method in brief: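 M17 neuroblastoma cells over-expressing wild-type α-synuclein were challenged with paraquat, and cytotoxicity was read as LDH release. Protection was expressed as percent reduction of paraquat-induced LDH release relative to untreated paraquat cells and control cells. Actives were retested in 10-point duplicate dose responses.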

SMILES | EC50 | %I
CCCCc1ccc(C(=O)N2CCN(c3nc(Cc4ccc(C)cc4)ns3)CC2C)cc1 (stereo not drawn) [Compound 117, 1-(4-butylbenzoyl)-4-[3-(4-methylbenzyl)-1,2,4-thiadiazol-5-yl]-2-methylpiperazine] | 0.0841 µg/mL (≈ 0.187 µM) | 82%
COc1ccc(C(=O)N2CCN(c3nc(Cc4ccc(F)cc4)ns3)CC2C)cc1 (stereo not drawn) [Compound 118, 1-(4-methoxybenzoyl)-4-[3-(4-fluorobenzyl)-1,2,4-thiadiazol-5-yl]-2-methylpiperazine] | 0.0911 µg/mL (≈ 0.214 µM) | 64%
COc1cccc(Cc2nsc(N3CCN(C(=O)c4ccc5c(c4)OCO5)C(C)C3)n2)c1 (stereo not drawn) [Compound 119, 1-(1,3-benzodioxol-5-ylcarbonyl)-4-[3-(3-methoxybenzyl)-1,2,4-thiadiazol-5-yl]-2-methylpiperazine] | 0.095 µg/mL (≈ 0.21 µM) | 72%
CCCCc1ccc(C(=O)N2CCN(c3nc(Cc4ccc(F)cc4)ns3)CC2C)cc1 (stereo not drawn) [Compound 120, 1-(4-butylbenzoyl)-4-[3-(4-fluorobenzyl)-1,2,4-thiadiazol-5-yl]-2-methylpiperazine] | 0.0987 µg/mL (≈ 0.218 µM) | 120%
CCCCCCc1ccc(C(=O)N2CCN(c3nc(Cc4ccc(F)cc4)ns3)CC2)cc1 [Compound 121, 1-(4-hexylbenzoyl)-4-[3-(4-fluorobenzyl)-1,2,4-thiadiazol-5-yl]piperazine] | 0.12 µg/mL (≈ 0.257 µM) | 64%
CC1CN(c2nc(Cc3ccc(F)cc3)ns2)CCN1C(=O)c1cccc(Cl)c1 (stereo not drawn) [Compound 122, 1-(3-chlorobenzoyl)-4-[3-(4-fluorobenzyl)-1,2,4-thiadiazol-5-yl]-2-methylpiperazine] | 0.14 µg/mL (≈ 0.325 µM) | 92%
COc1cccc(Cc2nsc(N3CCN(C(=O)c4ccc(F)cc4)C(C)C3)n2)c1 (stereo not drawn) [Compound 123, 1-(4-fluorobenzoyl)-4-[3-(3-methoxybenzyl)-1,2,4-thiadiazol-5-yl]-2-methylpiperazine] | 0.14 µg/mL (≈ 0.328 µM) | 95%
COc1cccc(Cc2nsc(N3CCN(C(=O)c4ccc(C)cc4)C(C)C3)n2)c1 (stereo not drawn) [Compound 124, 1-(4-methylbenzoyl)-4-[3-(3-methoxybenzyl)-1,2,4-thiadiazol-5-yl]-2-methylpiperazine] | 0.14 µg/mL (≈ 0.331 µM) | 57%
CC1CN(c2nc(Cc3ccc(Cl)cc3)ns2)CCN1C(=O)c1cccc(F)c1 (stereo not drawn) [Compound 125, 1-(3-fluorobenzoyl)-4-[3-(4-chlorobenzyl)-1,2,4-thiadiazol-5-yl]-2-methylpiperazine] | 0.16 µg/mL (≈ 0.371 µM) | 68%
CC1CN(c2nc(Cc3ccc(F)cc3)ns2)CCN1C(=O)c1ccccc1 (stereo not drawn) [Compound 126, 1-benzoyl-4-[3-(4-fluorobenzyl)-1,2,4-thiadiazol-5-yl]-2-methylpiperazine] | 0.21 µg/mL (≈ 0.53 µM) | 63%
CC1CN(c2nc(Cc3ccc(F)cc3)ns2)CCN1C(=O)c1ccc(F)cc1 (stereo not drawn) [Compound 127, 1-(4-fluorobenzoyl)-4-[3-(4-fluorobenzyl)-1,2,4-thiadiazol-5-yl]-2-methylpiperazine] | 0.23 µg/mL (≈ 0.555 µM) | 108%
CC1CN(c2nc(Cc3ccc(F)cc3)ns2)CCN1C(=O)c1ccc(C(C)(C)C)cc1 (stereo not drawn) [Compound 128, 1-(4-tert-butylbenzoyl)-4-[3-(4-fluorobenzyl)-1,2,4-thiadiazol-5-yl]-2-methylpiperazine] | 0.24 µg/mL (≈ 0.53 µM) | 95%
CC1CN(c2nc(Cc3ccc(F)cc3)ns2)CCN1C(=O)c1ccc(-c2ccccc2)cc1 (stereo not drawn) [Compound 129, 1-(1,1'-biphenyl-4-ylcarbonyl)-4-[3-(4-fluorobenzyl)-1,2,4-thiadiazol-5-yl]-2-methylpiperazine] | 0.24 µg/mL (≈ 0.508 µM) | 61%
CCc1ccc(C(=O)N2CCN(c3nc(Cc4ccc(C)cc4)ns3)CC2)cc1 [Compound 131, 1-(4-ethylbenzoyl)-4-[3-(4-methylbenzyl)-1,2,4-thiadiazol-5-yl]piperazine] | 0.25 µg/mL (≈ 0.615 µM) | 91%
CC1CN(c2nc(Cc3ccc(F)cc3)ns2)CCN1C(=O)c1ccc2ccccc2c1 (stereo not drawn) [Compound 132, 1-(2-naphthoyl)-4-[3-(4-fluorobenzyl)-1,2,4-thiadiazol-5-yl]-2-methylpiperazine] | 0.26 µg/mL (≈ 0.582 µM) | 74%
COc1ccccc1C(=O)N1CCN(c2nc(Cc3ccc(F)cc3)ns2)CC1C (stereo not drawn) [Compound 133, 1-(2-methoxybenzoyl)-4-[3-(4-fluorobenzyl)-1,2,4-thiadiazol-5-yl]-2-methylpiperazine] | 0.29 µg/mL (≈ 0.68 µM) | 118%
CCCCCc1ccc(C(=O)N2CCN(c3nc(Cc4ccc(C)cc4)ns3)CC2C)cc1 (stereo not drawn) [Compound 134, 1-(4-pentylbenzoyl)-4-[3-(4-methylbenzyl)-1,2,4-thiadiazol-5-yl]-2-methylpiperazine] | 0.3 µg/mL (≈ 0.648 µM) | 75%
CC1CN(c2nc(Cc3ccc(F)cc3)ns2)CCN1C(=O)c1ccc(Br)cc1 (stereo not drawn) [Compound 135, 1-(4-bromobenzoyl)-4-[3-(4-fluorobenzyl)-1,2,4-thiadiazol-5-yl]-2-methylpiperazine] | 0.31 µg/mL (≈ 0.652 µM) | 73%

SMILES | EC50 | %I
COc1ccc(C(=O)N2CCN(c3nc(Cc4ccc(F)cc4)ns3)CC2C)c(OC)c1 (stereo not drawn) [Compound 136, 1-(2,4-dimethoxybenzoyl)-4-[3-(4-fluorobenzyl)-1,2,4-thiadiazol-5-yl]-2-methylpiperazine] | 0.34 µg/mL (≈ 0.745 µM) | 83%
O=C(c1cc(Cl)cc(Cl)c1)N1CCN(c2nc(Cc3ccc(F)cc3)ns2)CC1 [Compound 137, 1-(3,5-dichlorobenzoyl)-4-[3-(4-fluorobenzyl)-1,2,4-thiadiazol-5-yl]piperazine] | 0.35 µg/mL (≈ 0.775 µM) | 68%
O=C(c1cccc(Cl)c1)N1CCN(c2nc(Cc3ccc(F)cc3)ns2)CC1 [Compound 138, 1-(3-chlorobenzoyl)-4-[3-(4-fluorobenzyl)-1,2,4-thiadiazol-5-yl]piperazine] | 0.36 µg/mL (≈ 0.863 µM) | 81%
Cc1ccc(C(=O)N2CCN(c3nc(Cc4ccc(F)cc4)ns3)CC2C)cc1 (stereo not drawn) [Compound 139, 1-(4-methylbenzoyl)-4-[3-(4-fluorobenzyl)-1,2,4-thiadiazol-5-yl]-2-methylpiperazine] | 0.4 µg/mL (≈ 0.974 µM) | 87%
Cc1ccccc1C(=O)N1CCN(c2nc(Cc3ccc(F)cc3)ns2)CC1C (stereo not drawn) [Compound 140, 1-(2-methylbenzoyl)-4-[3-(4-fluorobenzyl)-1,2,4-thiadiazol-5-yl]-2-methylpiperazine] | 0.45 µg/mL (≈ 1.1 µM) | 56%
Cc1ccc(C(=O)N2CCN(c3nc(Cc4ccc(F)cc4)ns3)CC2)cc1 [Compound 141, 1-(4-methylbenzoyl)-4-[3-(4-fluorobenzyl)-1,2,4-thiadiazol-5-yl]piperazine] | 0.49 µg/mL (≈ 1.24 µM) | 75%
CC1CN(c2nc(Cc3ccc(F)cc3)ns2)CCN1C(=O)c1cccc(Br)c1 (stereo not drawn) [Compound 142, 1-(3-bromobenzoyl)-4-[3-(4-fluorobenzyl)-1,2,4-thiadiazol-5-yl]-2-methylpiperazine] | 0.5 µg/mL (≈ 1.05 µM) | 72%
CCc1ccc(C(=O)N2CCN(c3nc(Cc4cccc(OC)c4)ns3)CC2C)cc1 (stereo not drawn) [Compound 143, 1-(4-ethylbenzoyl)-4-[3-(3-methoxybenzyl)-1,2,4-thiadiazol-5-yl]-2-methylpiperazine] | 0.56 µg/mL (≈ 1.28 µM) | 89%
CC1CN(c2nc(Cc3ccc(F)cc3)ns2)CCN1C(=O)c1cccc(C(F)(F)F)c1 (stereo not drawn) [Compound 145, 1-(3-trifluoromethylbenzoyl)-4-[3-(4-fluorobenzyl)-1,2,4-thiadiazol-5-yl]-2-methylpiperazine] | 0.62 µg/mL (≈ 1.33 µM) | 60%
COc1cccc(Cc2nsc(N3CCN(C(=O)c4ccc(C(C)(C)C)cc4)C(C)C3)n2)c1 (stereo not drawn) [Compound 146, 1-(4-tert-butylbenzoyl)-4-[3-(3-methoxybenzyl)-1,2,4-thiadiazol-5-yl]-2-methylpiperazine] | 0.72 µg/mL (≈ 1.55 µM) | 94%
CCc1ccc(C(=O)N2CCN(c3nc(Cc4ccc(C)cc4)ns3)CC2C)cc1 (stereo not drawn) [Compound 147, 1-(4-ethylbenzoyl)-4-[3-(4-methylbenzyl)-1,2,4-thiadiazol-5-yl]-2-methylpiperazine] | 0.84 µg/mL (≈ 2 µM) | 88%
CC1CN(c2nc(Cc3ccc(F)cc3)ns2)CCN1C(=O)c1ccccc1Br (stereo not drawn) [Compound 148, 1-(2-bromobenzoyl)-4-[3-(4-fluorobenzyl)-1,2,4-thiadiazol-5-yl]-2-methylpiperazine] | 0.86 µg/mL (≈ 1.81 µM) | 56%
Cc1ccc(Cc2nsc(N3CCN(C(=O)c4ccccc4F)C(C)C3)n2)cc1 (stereo not drawn) [Compound 149, 1-(2-fluorobenzoyl)-4-[3-(4-methylbenzyl)-1,2,4-thiadiazol-5-yl]-2-methylpiperazine] | 0.98 µg/mL (≈ 2.39 µM) | 105%
CC1CN(c2nc(Cc3ccccc3)ns2)CCN1C(=O)c1cccc(F)c1 (stereo not drawn) [Compound 150, 1-(3-fluorobenzoyl)-4-[3-benzyl-1,2,4-thiadiazol-5-yl]-2-methylpiperazine] | 1.14 µg/mL (≈ 2.88 µM) | 99%
Cc1ccc(Cc2nsc(N3CCN(C(=O)c4ccc(F)cc4)C(C)C3)n2)cc1 (stereo not drawn) [Compound 151, 1-(4-fluorobenzoyl)-4-[3-(4-methylbenzyl)-1,2,4-thiadiazol-5-yl]-2-methylpiperazine] | 1.14 µg/mL (≈ 2.78 µM) | 73%
Cc1ccccc1C(=O)N1CCN(c2nc(Cc3ccc(F)cc3)ns2)CC1 [Compound 152, 1-(2-methylbenzoyl)-4-[3-(4-fluorobenzyl)-1,2,4-thiadiazol-5-yl]piperazine] | 1.15 µg/mL (≈ 2.9 µM) | 66%
O=C(c1ccc(F)cc1)N1CCN(c2nc(Cc3ccc(Cl)cc3)ns2)CC1 [Compound 153, 1-(4-fluorobenzoyl)-4-[3-(4-chlorobenzyl)-1,2,4-thiadiazol-5-yl]piperazine] | 1.44 µg/mL (≈ 3.45 µM) | 53%
CC1CN(c2nc(Cc3ccccc3)ns2)CCN1C(=O)c1ccc(F)cc1 (stereo not drawn) [Compound 154, 1-(4-fluorobenzoyl)-4-[3-benzyl-1,2,4-thiadiazol-5-yl]-2-methylpiperazine] | 1.58 µg/mL (≈ 3.98 µM) | 75%
